pIC50: −log10 of the molar value.
How the values were obtained:
BACE [1] = target: T1, BACE (Homo sapiens, UniProt P56817); assay: BACE cell-based assay (Cell Assay), inhibition of Aβ40 by sandwich ELISA; conditions: Aβ40 in conditioned medium of cells stably expressing APP, 24 h incubation
T1 construct: Cells stably expressing Amyloid Precursor Protein (APP) were plated at a density of 40K cells/well in 96 well plates; endogenous in cells
Procedure: BACE Cell-Based Assay (Cell Assay)
The cell-based assay measures inhibition or reduction of Aβ40 in conditioned medium of test compound treated cells expressing amyloid precursor protein.
Cells stably expressing Amyloid Precursor Protein (APP) were plated at a density of 40K cells/well in 96 well plates (Costar). The cells were cultivated for 24 hours at 37° C. and 5% CO2 in DMEM supplemented with 10% FBS. The test compounds were then added to cells in 10-point dose response concentrations with the starting concentration being either 100 μM or 10 μM. The compounds were diluted from stock solutions in DMSO and the final DMSO concentration of the test compounds on cells was 0.1%. After 24 h of incubation with the test compounds the supernatant conditioned media was collected and the Aβ40 levels were determined using a sandwich ELISA. The IC50 of the compound was calculated from the percent of control or percent inhibition of Aβ40 as a function of the concentration of the test compound.
The sandwich ELISA to detect Aβ40 was performed in 96 well microtiter plates, which were pre-treated with goat anti-rabbit IgG (Pierce). The capture and detecting antibody pair that were used to detect Aβ40 from cell supernatants were affinity purified pAb40 (Biosource) and biotinylated 6E10 (Signet Labs Inc.), respectively. The optimal concentration for the pAb40 antibody was 3 μg/ml in Superblock/TBS (Pierce) that was supplemented with 0.05% Tween 20 (Sigma). Optimal concentration for the detection antibody 6E10-biotinylated was 0.5 μg/ml in Superblock/TBS (Pierce) that had been supplemented with 2% normal goat serum and 2% normal mouse serum.
Cellular supernatants were incubated with the capture antibody for 3 h at 4° C., followed by 3 wash steps in TBS-tween (0.05%). The detecting antibody incubation was for 2 h at 4° C., again followed by the wash steps as described previously. The final readout of the ELISA is Time-Resolved Fluorescence (counts per minute) using Delfia reagents Streptavidin-Europium and Enhancement solutions (Perkin Elmer) and the Victor 2 multilabel counter (Perkin Elmer).

BACE [2] = target: T1, BACE; assay: In vitro enzymatic BACE FRET assay (Enzyme Assay); format: biochemical; conditions: pH 4.2, enzyme 0.2 nM, FRET substrate 50 nM
Procedure: In Vitro Enzymatic BACE FRET (Fluorescence Resonance Energy Transfer) Assay (Enzyme Assay)
Assay buffer is 0.05 M acetate, pH 4.2, 10% DMSO final, 100 uM genapol (which is a nonionic detergent, below it's Critical Micelle Concentration). Enzyme (0.2 nM) is pre-incubated for one hour with inhibitors added in 1 uL of DMSO. Then the assay is started by the addition of FRET substrate (50 nM) and incubated for one hour. The FRET assay is terminated with by addition of Tris buffer, which raises the pH to neutrality, and the fluorescence is determined The FRET substrate is a peptide with commercially available fluorophore and quencher, on opposite sides of the BACE cleavage site. Proteolytic cleavage of the FRET substrate releases quenching of fluorescence (excitation 488 nm and […]).

T1 sequence (P56817 46-501): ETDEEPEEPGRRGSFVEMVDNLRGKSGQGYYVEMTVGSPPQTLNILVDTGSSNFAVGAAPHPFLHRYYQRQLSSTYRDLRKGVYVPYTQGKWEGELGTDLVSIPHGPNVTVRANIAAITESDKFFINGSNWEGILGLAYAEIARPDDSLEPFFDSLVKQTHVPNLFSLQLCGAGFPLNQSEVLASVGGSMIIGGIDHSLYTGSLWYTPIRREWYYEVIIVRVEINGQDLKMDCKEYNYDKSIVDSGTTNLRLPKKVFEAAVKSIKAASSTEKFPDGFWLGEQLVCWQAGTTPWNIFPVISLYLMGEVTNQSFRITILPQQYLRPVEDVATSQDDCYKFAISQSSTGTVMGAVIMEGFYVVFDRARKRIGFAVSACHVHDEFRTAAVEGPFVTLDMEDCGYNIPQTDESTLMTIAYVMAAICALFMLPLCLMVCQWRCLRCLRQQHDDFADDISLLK

pIC50 (BACE [1])	pIC50 (BACE [2])	Compound
4.60 to 5.00	4.60 to 5.00	CCc1ccc2c(c1)[C@@H](NC[C@@H](O)[C@H](Cc1ccccc1)Nc1ccc(Cl)nn1)CC1(CCC1)O2 [Example 39, (2R,3S)-3-((6-chloro-3-pyridazinyl)amino)-1-(((4S)-6-ethyl-3,4-dihydrospiro[chromene-2,1′-cyclobutan]-4-yl)amino)-4-phenyl-2-butanol]
4.60 to 5.00	4.60 to 5.00	CC(C)(C)Cc1cnc2c(c1)[C@@H](NC[C@H](O)[C@H](Cc1ccccc1)Nc1ccccc1F)CC1(CCC1)O2 [Example 41, (2S,3S)-1-(((4′S)-6′-(2,2-dimethylpropyl)-3′,4′-dihydrospiro[cyclobutane-1,2′-pyrano[2,3-b]pyridin]-4′-yl)amino)-3-((2-fluorophenyl)amino)-4-phenyl-2-butanol]
4.60 to 5.00	4.60 to 5.00	CCc1ccc2c(c1)[C@@H](NC[C@@H](O)[C@H](Cc1ccccc1)Nc1cccnc1)CC1(CCC1)O2 [Example 43, (2R,3S)-1-(((4S)-6-ethyl-3,4-dihydrospiro[chromene-2,1′-cyclobutan]-4-yl)amino)-4-phenyl-3-(3-pyridinylamino)-2-butanol]
6.00 to 7.00	> 7.00	CCOc1c(N[C@@H](Cc2cccc(F)c2)[C@H](O)CN[C@H]2CC3(CCC3)Oc3ncc(CC(C)(C)C)cc32)c(=O)c1=O [Example 45, 3-(((1S,2R)-3-(((4′S)-6′-(2,2-dimethylpropyl)-3′,4′-dihydrospiro[cyclobutane-1,2′-pyrano[2,3-b]pyridin]-4′-yl)amino)-1-((3-fluorophenyl)methyl)-2-hydroxypropyl)amino)-4-(ethyloxy)-3-cyclobutene-1,2-dione]
